Tests used:
[1] = tested on: IOP of rabbits receiving subTenon's dexamethasone acetate; test: Rabbit dexamethasone acetate-induced IOP elevation, topical ocular dosing; format: in vivo; settings: for IOP change versus vehicle treated group: weekly subTenon's dexamethasone acetate 1 mg/kg
Description: Three groups of rabbits received weekly subTenon's injections of dexamethasone acetate (1 mg/kg) for 4 weeks. After two weeks, the […] of all three groups measured approximately 5 mm Hg. The rabbits were then treated with vehicle, 0.1% anecortave acetate, a 1% anecortave acetate by topical ocular dosing three times a day for the remaining 2 weeks. The IOP continued to increase in the vehicle treated group.

[2] = tested on: glucocorticoid induced ocular hypertension; test: Topical anecortave acetate eye drops in patients with glucocorticoid induced ocular hypertension; format: in vivo, human (patients); settings: 1% eye drops topically three times per day for up to 12 weeks, glucocorticoid continued, reduced from 29 mm Hg
Description: Patients ([…]) with documented glucocorticoid induced ocular hypertension were treated topically with 1% anecortave acetate eye drops three times per day for up to 12 weeks. The patients continued to receive their glucocorticoid medication.

IOPs (printed TOPs) after two weeks of dexamethasone acetate ([1]; weekly subTenon's injections 1 mg/kg, after two weeks, all three groups) | Compound | IOP after anecortave acetate treatment [2] | IOP change versus vehicle treated group ([1]; 0.1% topical ocular three times a day for 2 weeks) | IOP change versus vehicle treated group ([1]; 1% topical ocular three times a day for 2 weeks)
approximately 5 mm Hg | CC(=O)OCC(=O)[C@@]1(O)[C@H](C)C[C@H]2[C@@H]3CCC4=CC(=O)C=C[C@]4(C)[C@@]3(F)[C@@H](O)C[C@@]21C [dexamethasone acetate] |  |  | 
 | CC(=O)OCC(=O)[C@@]1(O)CC[C@H]2[C@@H]3CCC4=CC(=O)CC[C@]4(C)C3=CC[C@@]21C [anecortave acetate, 4,9(11)-pregnadien-17α,21-diol-3,20dione-21-acetate] | 19-22 mm Hg | significantly lowered | significantly lowered

From patent US20090181933A1, “USE OF STEROIDS TO TREAT PERSONS SUFFERING FROM OCULAR DISORDERS” (priority 2008, published 2009)
